Measurements reported in BindingDB's records for doi:10.1021/jm00076a003 (Eisai, 1994).

Target: cGMP-specific 3',5'-cyclic phosphodiesterase (PDE5A) (Sus scrofa)
Test: Inhibitory activity against cyclic GMP-phosphodiesterase (PDE V) isolated from porcine aorta.

Row | Structure (SMILES) | IC50
1 | COc1cc2c(NCc3ccco3)ncnc2c(OC)c1OC [Furan-2-ylmethyl-(6,7,8-trimethoxy-quinazolin-4-yl)-amine] | 4000 nM
2 | COc1cc2c(NCc3cccc([N+](=O)[O-])c3)ncnc2c(OC)c1OC [(3-Nitro-benzyl)-(6,7,8-trimethoxy-quinazolin-4-yl)-amine] | 3500 nM
3 | COc1cc2c(NCc3ccc4c(c3)CCC4)ncnc2c(OC)c1OC [Indan-5-ylmethyl-(6,7,8-trimethoxy-quinazolin-4-yl)-amine] | 1900 nM
4 | COc1cc2c(=O)n(CCc3ccc4c(c3)OCO4)cnc2c(OC)c1OC [3-(2-Benzo[1,3]dioxol-5-yl-ethyl)-6,7,8-trimethoxy-3H-quinazolin-4-one] | 32000 nM
5 | COc1cc2c(NCc3ccc([N+](=O)[O-])cc3)ncnc2c(OC)c1OC [(4-Nitro-benzyl)-(6,7,8-trimethoxy-quinazolin-4-yl)-amine] | > 100000 nM
6 | COc1cccc(CNc2ncnc3c(OC)c(OC)c(OC)cc23)c1 [(3-Methoxy-benzyl)-(6,7,8-trimethoxy-quinazolin-4-yl)-amine] | 1700 nM
7 | CCCc1c(OCCCOc2ccc3c(=O)cc(C(=O)O)oc3c2CCC)ccc(C(C)=O)c1O [7-[3-(4-Acetyl-3-hydroxy-2-propyl-phenoxy)-propoxy]-4-oxo-8-propyl-4H-chromene-2-carboxylic acid] | 1500 nM
8 | COc1cc(CNc2ncnc3c(OC)c(OC)c(OC)cc23)cc(OC)c1OC [(3,4,5-Trimethoxy-benzyl)-(6,7,8-trimethoxy-quinazolin-4-yl)-amine] | 8900 nM
9 | COc1cc2c(NCCCCCO)ncnc2c(OC)c1OC [5-(6,7,8-Trimethoxy-quinazolin-4-ylamino)-pentan-1-ol] | 5500 nM
10 | COc1cc(OC)c(CNc2ncnc3c(OC)c(OC)c(OC)cc23)c(OC)c1 [(2,4,6-Trimethoxy-benzyl)-(6,7,8-trimethoxy-quinazolin-4-yl)-amine] | > 100000 nM
11 | COc1cc2c(NCc3cccc(Cl)c3)ncnc2c(OC)c1OC [(3-Chloro-benzyl)-(6,7,8-trimethoxy-quinazolin-4-yl)-amine] | 1300 nM
12 | COc1cc2c(NCc3ccccc3)ncnc2c(OC)c1OC [Benzyl-(6,7,8-trimethoxy-quinazolin-4-yl)-amine] | 2000 nM
13 | CCCc1c(OCc2ccc3c(c2)OCO3)ccc2c(=O)cc(C(=O)O)oc12 [7-(Benzo[1,3]dioxol-5-ylmethoxy)-4-oxo-8-propyl-4H-chromene-2-carboxylic acid] | 650 nM
14 | COc1cc2c(NCc3ccc4c(c3)OCCO4)ncnc2c(OC)c1OC [(2,3-Dihydro-benzo[1,4]dioxin-6-ylmethyl)-(6,7,8-trimethoxy-quinazolin-4-yl)-amine] | 780 nM
15 | COc1cc2c(NCc3ccc(Cl)cc3)ncnc2c(OC)c1OC [(4-Chloro-benzyl)-(6,7,8-trimethoxy-quinazolin-4-yl)-amine] | 1300 nM
16 | COc1ccc(CNc2ncnc3c(OC)c(OC)c(OC)cc23)cc1 [(4-Methoxy-benzyl)-(6,7,8-trimethoxy-quinazolin-4-yl)-amine] | 1000 nM
